Test results reported in ChEMBL document CHEMBL1131205, “Rational design and synthesis of novel, potent bis-phenylamidine carboxylate factor Xa inhibitors” (J Med Chem, 1998).

Assays:
Prothrombin = Prothrombin (Homo sapiens, UniProt P00734); assay: In vitro inhibition of thrombin
Coagulation factor X = Coagulation factor X (Homo sapiens, UniProt P00742); assay: In vitro inhibition of Coagulation factor X
Serine protease 1 = Serine protease 1 (Homo sapiens, UniProt P07477); assay: In vitro inhibition of trypsin
Serine protease 1, sequence (P07477 whole entry): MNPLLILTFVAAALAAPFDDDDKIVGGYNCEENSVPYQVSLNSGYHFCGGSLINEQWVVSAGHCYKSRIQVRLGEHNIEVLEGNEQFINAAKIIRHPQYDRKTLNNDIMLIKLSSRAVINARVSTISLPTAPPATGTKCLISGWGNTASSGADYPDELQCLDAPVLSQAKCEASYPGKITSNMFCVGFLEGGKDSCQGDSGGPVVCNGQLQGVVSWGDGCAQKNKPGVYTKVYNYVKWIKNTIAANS

Coagulation factor X, sequence (P00742 41-179 limits assumed): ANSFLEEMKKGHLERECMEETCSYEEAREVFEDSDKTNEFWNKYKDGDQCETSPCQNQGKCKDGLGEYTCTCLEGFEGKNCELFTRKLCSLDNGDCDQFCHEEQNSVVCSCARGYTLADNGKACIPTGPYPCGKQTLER
Coagulation factor X, sequence (P00742 235-488 limits assumed): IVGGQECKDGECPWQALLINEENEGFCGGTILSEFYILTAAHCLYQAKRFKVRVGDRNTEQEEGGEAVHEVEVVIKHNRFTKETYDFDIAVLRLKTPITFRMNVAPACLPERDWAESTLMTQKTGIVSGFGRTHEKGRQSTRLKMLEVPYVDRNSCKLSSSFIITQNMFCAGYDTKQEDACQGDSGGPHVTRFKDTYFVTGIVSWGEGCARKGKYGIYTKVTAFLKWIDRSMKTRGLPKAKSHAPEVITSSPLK

SMILES | Ki (Prothrombin) [nM] | Ki (Coagulation factor X) [nM] | Ki (Serine protease 1) [nM]
COC(=O)CC(CCc1ccc(C(=N)N)cc1)c1cccc(C(=N)N)c1 (centres undefined) | 1200 | 34 | 99
CCOC(=O)CC(CCc1ccccc1)c1cccc(C(=N)N)c1 (centres undefined) | > 2100 | 2900 | –
COC(=O)CNC(=O)CC(CCc1ccc(C(=N)N)cc1)c1cccc(C(=N)N)c1 (centres undefined) | 12600 | 2400 | –
COC(=O)CC(CCc1ccc(N=C(N)N)cc1)c1cccc(C(=N)N)c1 (centres undefined) | 3100 | 9 | 96
N=C(N)c1ccc(CCC(CC(=O)O)c2cccc(C(=N)N)c2)cc1 (centres undefined) | > 4200 | – | > 1200
COC(=O)CC(CCc1ccc(C(=O)OC)cc1)c1cccc(C(=N)N)c1 (centres undefined) | 3600 | 2800 | 330
COC(=O)CC(CCc1ccc(C(N)=O)cc1)c1cccc(C(=N)N)c1 (centres undefined) | 6500 | 550 | 870
COC(=O)CC(CCCCc1ccc(N=C(N)N)cc1)c1cccc(C(=N)N)c1 (centres undefined) | 3300 | 57 | 760

The next lines start with the values.

Ki (Prothrombin) [nM] | Ki (Coagulation factor X) [nM] | Ki (Serine protease 1) [nM] | SMILES
19600 | 2400 | – | CONC(=O)CC(CCc1ccc(C(=N)N)cc1)c1cccc(C(=N)N)c1 (centres undefined)
8000 | 940 | 820 | CNC(=O)CC(CCc1ccc(C(=N)N)cc1)c1cccc(C(=N)N)c1 (centres undefined)
1540 | 192 | 140 | CC(C)OC(=O)CC(CCc1ccc(C(=N)N)cc1)c1cccc(C(=N)N)c1 (centres undefined)
1200 | 22900 | – | CCOC(=O)CC(CCc1ccc(C(=N)N)cc1)c1ccc(C(=N)N)cc1 (centres undefined)
8500 | 2800 | – | COC(=O)CC(CCc1cccc(C(=N)N)c1)c1cccc(C(=N)N)c1 (centres undefined)
4400 | 5100 | – | N=C(N)c1ccc(CCC(=O)c2cccc(C(=N)N)c2)cc1
3430 | 1640 | – | CCOC(=O)CC(CCc1cccc(C(=N)N)c1)c1ccc(C(=N)N)cc1 (centres undefined)
3100 | 654 | 110 | COC(=O)CC(CCc1ccc(NS(C)(=O)=O)cc1)c1cccc(C(=N)N)c1 (centres undefined)
6200 | > 30000 | – | CCOC(=O)CC(CCc1ccc(C(=N)N)cc1)c1ccccc1 (centres undefined)
1100 | 42 | 110 | CCOC(=O)CC(CCc1ccc(C(=N)N)cc1)c1cccc(C(=N)N)c1 (centres undefined)
1750 | 1100 | 610 | COC(=O)CC(CCc1ccc(NS(=O)(=O)c2ccccc2)cc1)c1cccc(C(=N)N)c1 (centres undefined)
2800 | 1150 | 440 | N=C(N)c1ccc(CCC(CC(=O)N2CCCC2)c2cccc(C(=N)N)c2)cc1 (centres undefined)
7700 | 5000 | 1200 | COC(=O)CC(CCc1ccc(N)cc1)c1cccc(C(=N)N)c1 (centres undefined)
